System: 817829-284-R-J1-PDC complex spheroids, viability
Assay: Anticancer human tumor 817829-284-R-J1-PDC patient-derived colon adenocarcinoma cell line growth inhibition [GQUAD]
Details: for IC50: curve of first compound; for viability, T/C: stronger effect = lower value
Source text: DNA G-quadruplex Stabilizer Agents in Combinations in Complex Spheroids
A high-throughput screen of multi-cell type tumor spheroids was designed to identify active combinations of DNA G-quadruplex stabilizer agents and targeted small molecules. Complex spheroids include a stromal component modeled by human endothelial cells (HUVEC) and fibroblasts modeled by human mesenchymal stem cells (MSCs). The concentration ranges selected for each drug and investigational agent were based upon clinically achievable concentrations if the clinical Cmax of the agent was known.
Compounds. The drugs and investigational agents: pidnarulex (CX-5461; NSC782164), APTO-253 (NSC789042), BRACO-19 (NSC847499), peposertib (NSC802822), ceralasertib (NSC780249), elimusertib (NSC800525), camonsertib (NSC841442), AZD-1390 (NSC803789), olaparib (NSC753686), talazoparib (NSC767125), ART-558 (NSC835418), sotorasib (NSC818433), MRTX-1133 (NSC836407), SN-38 (NSC673596), topotecan (NSC609699), etoposide (NSC141540), doxorubicin (NSC123127), gemcitabine (NSC613327), 5-fluorouracil (NSC19893), paclitaxel (NSC125973), vemurafenib (NSC761431), panobinostat (NSC761190), R-306465 (JNJ-16241199; NSC773264), adavosertib (NSC754352), TP-3654 (NSC805149), carboplatin (NSC241240), KSQ-4279 (NSC840948), and staurosporine (NSC755774) were obtained from the National Cancer Institute (NCI) Developmental Therapeutics Program Chemical Repository (34). The FDA-approved anticancer drug set is available from the NCI Developmental Therapeutics Program. […] The stock solutions were prepared in dimethyl sulfoxide (DMSO, Sigma-Aldrich, St. Louis, MO, cat. D2650) at 800-fold the tested concentration and stored at -70 degrees C prior to their use. All drugs and investigational agents were tested over a range starting from a high concentration at or near the clinical Cmax and decreasing in half-log increments. If the clinical Cmax for an agent had not been determined, the highest concentration tested was 10 microM.
2.3 Cell Culture. All cells were maintained in an incubator at 37 degrees C and 5% CO2 with 95% humidity. The PDC lines were cultured according to standard operating procedures established by the NCI PDMR. All PDCs were thawed and cultured in Matrigel-coated flasks prepared with a working solution of 1X Ham's F-12 nutrient mix, without supplementation (Invitrogen, cat. 11765054), 100 U/mL penicillin-streptomycin (Invitrogen, cat. 15140122), and 2.5% Matrigel (Corning Inc., cat. 354248) for the first three passages. The 857933-349-R-J2-PDC line was cultured in 6C/Colon 1B media, which includes advanced DMEM/F-12 (Thermo Fisher Scientific, cat. 12634028), 10 mM HEPES (Thermo Fisher Scientific, cat. 15630080), 1X GlutaMAX supplement (Thermo Fisher Scientific, cat. 35050061), 0.1 mg/mL primocin (InvivoGen, cat. ant-pm-2), 10% defined fetal bovine serum, heat inactivated (HyClone Laboratories Inc., cat. SH30070.03HI), 50% L-WRN conditioned media (ATCC, cat. CRL-3276), 1.25 mM N-Acetyl-L-cysteine (Sigma-Aldrich, cat. A9165), 10 mM nicotinamide (Sigma-Aldrich, cat. N0636), 1X B-27 supplement (Thermo Fisher Scientific, cat. 17504044), 1X N-2 supplement (Thermo Fisher Scientific, cat. 17502048), 10 microM Y-27632 dihydrochloride (Tocris Bioscience, cat. 1254), and 50 ng/mL human EGF recombinant protein (Thermo Fisher Scientific, cat. PHG0311). The 485176-168-R4-J1-PDC line was cultured in Panc media, which includes all 6C/Colon 1B media components plus 100 ng/mL human FGF-10 (Thermo Fisher Scientific, cat. 100-26), 500 nM SB-431542 (Selleckchem, cat. S1067), and gastrin (Tocris, cat. 3006).
[…]
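Also: spheroids exposed to agents for 7 days before readout.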
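For viability, T/C in this document: percent viability relative to DMSO vehicle control taken as 100%.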

CC(=O)O[C@H]1C(=O)[C@@]2(C)[C@H]([C@H](OC(=O)c3ccccc3)[C@]3(O)C[C@H](OC(=O)[C@H](O)[C@@H](NC(=O)c4ccccc4)c4ccccc4)C(C)=C1C3(C)C)[C@]1(OC(C)=O)CO[C@@H]1C[C@@H]2O + Cc1cnc(CNC(=O)c2c(=O)c3ccc(N4CCCN(C)CC4)nc3n3c2sc2ccccc23)cn1
IC50 (second compound 0.0316 µM): < 31.6 nM | IC50 (second compound 0.1 µM): < 31.6 nM | IC50 (second compound 0.316 µM): < 31.6 nM | IC50 (second compound 1 µM): < 31.6 nM | IC50 (second compound 3.16 µM): < 31.6 nM | IC50 (second compound 10 µM): < 31.6 nM | viability, T/C (second compound 0.0316 µM, first compound 0.0316 µM): 13.8% | viability, T/C (second compound 0.0316 µM, first compound 0.1 µM): 7.95% | viability, T/C (second compound 0.0316 µM, first compound 0.316 µM): 6.83% | viability, T/C (second compound 0.0316 µM, first compound 1 µM): 5.58% | viability, T/C (second compound 0.0316 µM, first compound 3.16 µM): 6.63% | viability, T/C (second compound 0.0316 µM, first compound 10 µM): 7.13% | viability, T/C (second compound 0.1 µM, first compound 0.0316 µM): 16.6% | viability, T/C (second compound 0.1 µM, first compound 0.1 µM): 15.9% | viability, T/C (second compound 0.1 µM, first compound 0.316 µM): 13.2% | viability, T/C (second compound 0.1 µM, first compound 1 µM): 13.6% | viability, T/C (second compound 0.1 µM, first compound 3.16 µM): 14.1% | viability, T/C (second compound 0.1 µM, first compound 10 µM): 14.8% | viability, T/C (second compound 0.316 µM, first compound 0.0316 µM): 17.9% | viability, T/C (second compound 0.316 µM, first compound 0.1 µM): 20.6% | viability, T/C (second compound 0.316 µM, first compound 0.316 µM): 19.2% | viability, T/C (second compound 0.316 µM, first compound 1 µM): 19.6% | viability, T/C (second compound 0.316 µM, first compound 3.16 µM): 16% | viability, T/C (second compound 0.316 µM, first compound 10 µM): 20.2% | viability, T/C (second compound 1 µM, first compound 0.0316 µM): 15.3% | viability, T/C (second compound 1 µM, first compound 0.1 µM): 20.4% | viability, T/C (second compound 1 µM, first compound 0.316 µM): 17.4% | viability, T/C (second compound 1 µM, first compound 1 µM): 17% | viability, T/C (second compound 1 µM, first compound 3.16 µM): 17.5% | viability, T/C (second compound 1 µM, first compound 10 µM): 16.5% | viability, T/C (second compound 3.16 µM, first compound 0.0316 µM): 17.3% | viability, T/C (second compound 3.16 µM, first compound 0.1 µM): 16.9% | viability, T/C (second compound 3.16 µM, first compound 0.316 µM): 14.7% | viability, T/C (second compound 3.16 µM, first compound 1 µM): 14.4% | viability, T/C (second compound 3.16 µM, first compound 3.16 µM): 12.7% | viability, T/C (second compound 3.16 µM, first compound 10 µM): 13.1% | viability, T/C (second compound 10 µM, first compound 0.0316 µM): 0.11% | viability, T/C (second compound 10 µM, first compound 0.1 µM): 0.16% | viability, T/C (second compound 10 µM, first compound 0.316 µM): 0.15% | viability, T/C (second compound 10 µM, first compound 1 µM): 0.14% | viability, T/C (second compound 10 µM, first compound 3.16 µM): 0.15% | viability, T/C (second compound 10 µM, first compound 10 µM): 0.15%

Reference: PubChem BioAssay AID2060503 (Molecular Pharmacology Branch, DTP, NCI, 2025)
